# Experimental data from patent US6737383B1, “Herbicidal oxadiazolidines” (priority 1999, dated 2004).
# Assays:
# [1] = tested on: sugar beet; test: Test B pre/postemergence sugar beet; assay type: in vivo, Beta vulgaris; settings: for Sugarbeets plant response rating (0 to 10 scale): 0 is no effect
# Method in brief: (§1)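 Response is a visual 0-to-10 score relative to untreated plants, where 0 means no effect and 10 means complete control, taken twelve to sixteen days after application. Treatments went onto soil at planting and onto foliage of 1- to 4-leaf plants, using a surfactant-containing non-phytotoxic solvent.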
# [2] = tested on: rice; test: Test B flood test rice; assay type: in vivo, Oryza sativa; settings: for Plant response rating, Rice: Rate 250 g/ha, Postemergence (flood test), scale 0 to 10, 0 is no effect, 10 is complete control
# Method in brief: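 Plants were grown to the 2-leaf stage before treatment with test chemical, then held in a greenhouse for twelve to sixteen days. Injury was visually rated against untreated controls on a 0–10 scale, where 0 is no effect and 10 is complete control.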
# [3] = tested on: purple nutsedge; test: Test B pre/postemergence purple nutsedge; assay type: in vivo, Cyperus rotundus; settings: for Nutsedge plant response rating (0 to 10 scale): 0 is no effect
# Method in brief: as §1
# [4] = tested on: pigweed; test: Test B pre/postemergence pigweed; assay type: in vivo, Amaranthus retroflexus; settings: for Redroot pigweed plant response rating (0 to 10 scale): 0 is no effect
# Method in brief: as §1
# [5] = Postemergence, Rate 125 g/ha, scale of 0 to 10 where 0 is no effect and 10 is complete control
# [6] = Preemergence, Rate 62 g/ha, scale 0 to 10 (0 no effect, 10 complete control)
# [7] = Preemergence, Rate 125 g/ha, 10 is complete control
# [8] = Preemergence, Rate 250 g/ha, scale 0 to 10, 0 is no effect, 10 is complete control
# [9] = Preemergence, Rate 500 g/ha, scale 0 to 10 (0 no effect, 10 complete control)
# [10] = Rate 62 g/ha, Postemergence, scale of 0 to 10 where 0 is no effect and 10 is complete control
# [11] = Rate 250 g/ha, Postemergence, scale 0 to 10, 0 is no effect, 10 is complete control
# [12] = Rate 500 g/ha, Postemergence, scale 0 to 10
# [13] = Postemergence (flood test species), Rate 125 g/ha, scale of 0 to 10 where 0 is no effect and 10 is complete control
# [14] = Rate 62 g/ha, Postemergence section, flood test species, scale of 0 to 10 where 0 is no effect and 10 is complete control
# [15] = Rate 500 g/ha, listed under Postemergence (flood test species), scale 0 to 10
Compound,"Sugarbeets plant response rating [1, 5]","Sugarbeets plant response rating [1, 6]","Sugarbeets plant response rating (0 to 10 scale) [1, 7]","Sugarbeets plant response rating [1, 8]","Sugarbeets plant response rating [1, 9]","Sugarbeets plant response rating [1, 10]","Plant response rating, Sugarbeets [1, 11]","Sugarbeets plant response rating [1, 12]","Rice plant response rating [2, 13]","Rice plant response rating [2, 14]","Plant response rating, Rice [2]","Rice plant response rating [2, 15]","Nutsedge plant response rating [3, 5]","Nutsedge plant response rating [3, 6]","Nutsedge plant response rating (0 to 10 scale) [3, 7]","Nutsedge plant response rating [3, 8]","Nutsedge plant response rating [3, 9]","Nutsedge plant response rating [3, 10]","Plant response rating, Nutsedge [3, 11]","Nutsedge plant response rating [3, 12]",other results
COc1ccccc1Cn1c(=O)on(C(=O)N(c2ccc(F)cc2)C(C)C)c1=O [Compound 143],6,0,1,3,9,1,6,6,0,0,2,4,0,0,0,0,0,0,0,0,"Redroot pigweed plant response rating [4, 5]: 5; Redroot pigweed plant response rating (0 to 10 scale) [4, 7]: 0; Redroot pigweed plant response rating [4, 8]: 4; Redroot pigweed plant response rating [4, 9]: 10; Redroot pigweed plant response rating [4, 10]: 3; Plant response rating, Redroot pigweed [4, 11]: 5; Redroot pigweed plant response rating [4, 12]: 6"
CN(C(=O)n1oc(=O)n(Cc2ccccc2)c1=O)c1ccccc1 [Compound 153],0,0,0,0,0,0,0,0,0,0,0,0,0,0,0,0,0,0,0,0,"Redroot pigweed plant response rating [4, 5]: 0; Redroot pigweed plant response rating [4, 6]: 0; Redroot pigweed plant response rating (0 to 10 scale) [4, 7]: 0; Redroot pigweed plant response rating [4, 8]: 0; Redroot pigweed plant response rating [4, 9]: 0; Redroot pigweed plant response rating [4, 10]: 0; Plant response rating, Redroot pigweed [4, 11]: 0; Redroot pigweed plant response rating [4, 12]: 0"
